The results in this text go back to patent US20250127903A1, “SUBSTITUTED PIPERIDINE DEGRONIMERS FOR TARGET PROTEIN DEGRADATION” (priority 2016, published 2025).

In the assay the target is CRBN-DDB1 (Homo sapiens (Human), UniProt Q96SW2). Put plainly: CRBN-DDB1 fluorescence polarization (FP) binding assay. To be noted: Table 2 Degrons; displacement of Thalidomide-Alexa Fluor or Pomalidomide-fluorescein probe. The method, then:
Measuring compound ligand binding to CRBN-DDB1 was carried out using an established sensitive and quantitative in vitro fluorescence polarization (FP) based binding assay. […] Compounds were dispensed from serially diluted DMSO stock into black 384-well compatible fluorescence polarization plates using an Echo acoustic dispenser. […] Matching control wells excluding CRBN-DDB1 were used to correct for background fluorescence. Plates were read on an Envision plate reader with appropriate FP filter sets.

Where only a bound is given, the exact number is not on record here.

Chain of CRBN-DDB1 (Q96SW2 whole entry, looked up): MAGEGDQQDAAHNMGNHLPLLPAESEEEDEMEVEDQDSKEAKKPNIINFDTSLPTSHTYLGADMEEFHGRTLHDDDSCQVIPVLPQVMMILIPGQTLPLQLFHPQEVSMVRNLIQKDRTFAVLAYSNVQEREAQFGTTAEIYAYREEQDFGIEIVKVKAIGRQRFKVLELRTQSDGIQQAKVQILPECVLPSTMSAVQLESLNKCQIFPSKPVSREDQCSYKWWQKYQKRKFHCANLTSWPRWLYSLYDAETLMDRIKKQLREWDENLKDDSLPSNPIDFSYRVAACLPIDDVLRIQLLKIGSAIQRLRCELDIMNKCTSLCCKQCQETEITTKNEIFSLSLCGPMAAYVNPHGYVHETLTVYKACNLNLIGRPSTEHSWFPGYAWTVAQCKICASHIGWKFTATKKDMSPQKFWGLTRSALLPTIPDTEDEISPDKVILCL
Chain of CRBN-DDB1 (Q16531 whole entry partner, looked up): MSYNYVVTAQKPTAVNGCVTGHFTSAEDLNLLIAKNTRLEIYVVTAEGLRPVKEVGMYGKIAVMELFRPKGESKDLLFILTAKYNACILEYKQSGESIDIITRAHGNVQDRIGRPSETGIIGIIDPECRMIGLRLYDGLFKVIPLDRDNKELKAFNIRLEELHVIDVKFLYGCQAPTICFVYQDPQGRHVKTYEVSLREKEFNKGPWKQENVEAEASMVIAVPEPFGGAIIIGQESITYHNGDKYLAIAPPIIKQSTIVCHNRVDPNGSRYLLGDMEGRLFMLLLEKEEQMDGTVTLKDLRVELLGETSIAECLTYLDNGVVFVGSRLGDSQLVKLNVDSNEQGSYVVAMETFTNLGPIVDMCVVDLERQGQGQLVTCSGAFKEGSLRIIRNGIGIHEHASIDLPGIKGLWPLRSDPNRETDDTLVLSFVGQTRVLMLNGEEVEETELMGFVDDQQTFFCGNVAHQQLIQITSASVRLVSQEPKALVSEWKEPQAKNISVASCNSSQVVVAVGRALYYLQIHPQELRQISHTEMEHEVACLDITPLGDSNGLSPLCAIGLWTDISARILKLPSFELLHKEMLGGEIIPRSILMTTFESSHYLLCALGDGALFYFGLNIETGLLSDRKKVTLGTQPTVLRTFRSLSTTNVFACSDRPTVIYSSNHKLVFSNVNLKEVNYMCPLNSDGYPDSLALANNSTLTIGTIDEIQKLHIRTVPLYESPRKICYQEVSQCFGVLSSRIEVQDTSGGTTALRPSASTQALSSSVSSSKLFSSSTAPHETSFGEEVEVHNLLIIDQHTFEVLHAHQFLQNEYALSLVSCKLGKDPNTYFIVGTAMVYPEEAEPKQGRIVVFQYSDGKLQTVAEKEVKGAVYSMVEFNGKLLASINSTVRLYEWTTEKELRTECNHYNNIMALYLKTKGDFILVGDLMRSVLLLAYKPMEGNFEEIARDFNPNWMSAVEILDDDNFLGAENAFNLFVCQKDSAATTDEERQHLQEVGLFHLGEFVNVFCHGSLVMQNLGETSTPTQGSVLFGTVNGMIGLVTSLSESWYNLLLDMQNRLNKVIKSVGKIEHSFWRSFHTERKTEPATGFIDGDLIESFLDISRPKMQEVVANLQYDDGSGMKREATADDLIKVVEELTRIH

`CC(C)(C)OC(=O)N1CCC(n2cc(CNc3cccc4c3C(=O)N(C3CCC(=O)NC3=O)C4=O)nn2)CC1` (stereo not shown) [Compound 264, tert-Butyl 4-(4-(((2-(2,6-Dioxopiperidin-3-yl)-1,3-dioxoisoindolin-4-yl)amino)methyl)-1H-1,2,3-triazol-1-yl)piperidine-1-carboxylate] showed a Kd of under 10 µM.
